{"source": "patent US20030045541A1", "about": "“GABA-Receptor modulators with NMDA-Antagonistic activity” (priority 2001, published 2003)", "key": {"glutamatergic EPSCs": {"test_system": "glutamatergic EPSCs", "assay": "Excitatory post-synaptic flows (EPSCs), patch-clamp on cultivated neurons", "assay_type": "cell-based, Wistar", "settings": "P<0.05", "experimental": "(§1) The measurements were produced on cultivated neurons of Wistar embryos on the eighteenth day of gestation. After the preparation, the neurons were grown on small plates. To this end, small cover glasses for microscopic preparations with a diameter of 12 mm (assistant) were used. In each case four of the small cover glasses were transferred to a small plastic dish (Nuncion).\n(§2) As preparation media, the following solutions were used: GBSS (Grey's buffered salt solution, Sigma) supplemented with 10 mmol of HEPES (N-2-hydroxyethyl-piperazine-N-2-ethanesulfonic acid, Sigma), adjusted to pH 7.3 with NaOH (Sigma). […]\n(§3) The measurements were carried out at room temperature. […] The thus modulated signals were visualized by means of a storage oscilloscope and recorded with a thermal plotter. At the same time, the signals were detected via a […] and recorded on a videotape. The stored data were later played back, digitalized again and then evaluated “offline” with a PC. […]\n(§4) Excitatory post-synaptic flows (EPSCs) were isolated by adding the GABAA-receptor antagonists bicuculline (20 μm) and the GABAA-receptor antagonist picrotoxin (10 μm) that has an allosteric effect. […] The pure EPSCs that can now be detected could be blocked completely by adding 10 μm of NBQX and 30 μm of APV and thus are purely glutamatergic."}, "AMPA-ergic activity": {"test_system": "AMPA-ergic activity", "assay": "Isolated AMPA-ergic activity of EPSCs (30 μm APV applied)", "assay_type": "cell-based, Wistar", "settings": "30 μm of APV on isolated EPSCs; n=3", "experimental": "as §1, §2, §3\nas §4, with “glutamatergic. […]” for “glutamatergic.”"}, "[1]": {"test_system": "primary cell cultures of cortical neurons of rats", "assay": "Oxygen and glucose deprivation (OGD) model, LDH level in the medium", "assay_type": "cell-based", "settings": "for LDH level: OGD, after 24 hours, OGD control 25.1", "experimental": "The measurements were performed on primary cell cultures of cortical neurons of rats. After the cells were grown in culture, the following test was performed:\nGlucose and oxygen were simultaneously removed from the culture solution. This model is a definitely sturdy model, which simulates the conditions during a very serious and very extensive stroke. In the zero comparison, the culture solution was left unchanged (BSS=balanced salt solution). In the control, oxygen and glucose were removed (OGD=oxygen and glucose deprivation); in the test group, Abecarnil was added simultaneously to the oxygen and glucose removal.\nAs damage parameters for the neurons, the LDH (lactate-dehydrogenase) level in the solution was measured by the cells. LDH is a definitely reliable stress parameter for the cells. The stronger the neuronal stress is or the more cells are already ruined, the more the LDH levels in the medium increase. From a pharmaceutical agent with a neuroprotective effect, it can be expected that it reduces the LDH level in the medium.\nIn FIG. 1, the values of such a measurement were depicted. If the LDH levels were below OGD 25.1, they were 11.0 with 0.1 μm of Abecarnil; 6.2 with 1 μm of Abecarnil; 14.9 with 10 μm of Abecarnil, and 15 with 100 μm of Abecarnil (after 24 hours). In the case of an Abecarnil concentration of 1 μm, this corresponds to an LDH reduction of over 75%!"}, "[2]": {"test_system": "GABAA-receptor-mediated IPSCs", "assay": "Inhibitory post-synaptic flows (IPSCs), patch-clamp on cultivated neurons", "assay_type": "cell-based, Wistar", "experimental": "as §1\nAs preparation media, the following solutions were used: GBSS (Grey's buffered salt solution, Sigma) supplemented with 10 mmol of HEPES (N-2-hydroxyethyl-piperazine-N-2-ethanesulfonic acid, Sigma), adjusted to pH 7.3 with NaOH (Sigma). As culture media, the following were used: DMEM (Sigma), glucose-containing, equine serum 10% (Sigma) and glutamine. The cells were generally divided so that at the beginning of the culture, 50,000 cells per small plate were present. The medium was changed according to the preparation after 24 hours and then changed after three days in each case. Synaptic spontaneous activity developed generally starting from the tenth day in vitro.\nThe extracellular measuring solution had the following composition (in mmol): NaCl 140; KCl 5.4; CaCl2 2; HEPES 10; MgCl 1; glucose 25. The pH was set at 7.4 with NaOH. IPSCs were isolated by adding 1,2,3,4,-tetrahydro-6-nitro-2,3-di-oxo-benzo-quinoxaline-7-sulfonamide (NBQX 10 μm) and DL-2-amino-5-phosphonovaleric acid (±-APV 30 μm). EPSCs were isolated by adding bicuculline (10 μm) and picrotoxin (20 μm). In the examination of the EPSCs, a ringer solution without MgCl2 was used. The pipette solution had the following composition (in mmol): KCl 120; MgCl2 2; CaCl2 1; HEPES 10; EGTA 11; glucose 20; the pH was 7.2.\nas §3"}, "NMDA receptor": {"test_system": "NMDA receptor", "assay": "Isolated NMDA portion of EPSCs (10 μm NBQX applied)", "assay_type": "cell-based, Wistar", "settings": "10 μm of NBQX on isolated EPSCs, 1 μm of compound; n=7", "experimental": "as §1, §2, §3\nas §4, with “glutamatergic. […]” for “glutamatergic.”"}}, "data": [{"smiles": "COCc1c(C(=O)OC(C)C)ncc2[nH]c3ccc(OCc4ccccc4)cc3c12", "note": "[Abecarnil, 6-benzyloxy-4-methoxymethyl-β-carboline-3-carboxylic acid isopropyl ester]", "values": [{"measurement": "EPSC amplitude, % of the starting value", "setting": "glutamatergic EPSCs", "value": "81.2±17.8", "unit": "%"}, {"measurement": "EPSC frequency, % of the starting value", "setting": "glutamatergic EPSCs", "value": "32.6±19.8", "unit": "%"}, {"measurement": "effect on isolated AMPA-ergic activity", "setting": "AMPA-ergic activity", "value": "no effect"}, {"measurement": "LDH level", "setting": "[1]; 0.1 μm of Abecarnil", "value": 11.0}, {"measurement": "LDH level", "setting": "[1]; 1 μm of Abecarnil", "value": 6.2}, {"measurement": "LDH reduction", "setting": "[1]; 1 μm of Abecarnil, versus OGD", "value": "over 75%"}, {"measurement": "LDH level", "setting": "[1]; 10 μm of Abecarnil", "value": 14.9}, {"measurement": "LDH level", "setting": "[1]; 100 μm of Abecarnil", "value": 15}, {"measurement": "slow time constant of the averaged IPSCs (τslow), % of the starting value", "setting": "[2]; P<0.05", "value": "289.7±180.9", "unit": "%"}, {"measurement": "IPSC frequency, % of the starting value", "setting": "[2]; n=10, P<0.05", "value": "33.8±24.7", "unit": "%"}, {"measurement": "quick time constant of the averaged IPSCs (τfast), % of the starting value", "setting": "[2]; no statistical significance", "value": "143.9±51.0", "unit": "%"}, {"measurement": "effect on isolated NMDA portion of EPSC activity", "setting": "NMDA receptor", "value": "completely blocked"}]}]}
